The values that follow come from PubChem BioAssay (NCI).

Test in all cases: NCI tumour cell line growth inhibition, 48 h
The test system of assay [1] is ACHN renal.
Assay [2] deals with SK-MEL-5 melanoma.
Assay [3] concerns COLO 205 colon.
Assay [4] deals with OVCAR-5 ovarian.
For assay [5], the system named is HL-60(TB) leukemia.
For assay [6], the system named is RPMI-8226 leukemia.
The test system of assay [7] is SK-OV-3 ovarian.
For assay [8], the system named is CCRF-CEM leukemia.
Assay [9] relates to SR leukemia.
The test system of assay [10] is NCI/ADR-RES ovarian.

The structures appear in SMILES notation.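 Protocol summary: plate cells (96-well), add compound at 5 concentrations, incubate 48 h, interpolate endpoints linearly. The concentration for 50% growth inhibition is given as GI50. At the TGI there is no net growth.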 Bounds are passed on as bounds.

Take `CCCCCOCC(O)CO` (centres undefined): the TGI in assay [1], in assay [2], in [3] and in assay [4] was over 100 µM in each case.
For the compound `CC(C)N(O)C(=N)c1ccccc1`, the TGI in assay [5], in assay [2] and in [4] was over 100 µM throughout.
Regarding `C[C@]12CCC(=O)C(OC(=O)c3ccc([N+](=O)[O-])cc3)=C1CCC2=O`, the TGI in [1], in assay [5], in assay [6], in assay [7], in assay [8] and in assay [2] was over 100 µM each time. Moreover, the TGI in assay [9], in [3] and in [4] was over 100 µM each time.
Consider `N#CC(C(=O)C(=O)Nc1ccccc1)c1ccccc1` (centres undefined), for which the TGI in [1], in assay [5], in [6], in assay [7], in assay [8] and in assay [9] was over 100 µM throughout.
`C=C(CO)CC(O)c1cc(OC)ccc1OC` (centres undefined): the TGI in assay [1], in assay [5], in assay [6], in assay [7], in assay [8] and in [2] was over 100 µM each time. In addition, the TGI in assay [3] and in assay [4] was over 100 µM each time.
Turning to `Cc1ccc(-c2nc3ccccc3c(=O)n2NCC2(O)OCC(O)C(O)C2O)cc1` (centres undefined), the TGI in assay [1], in [5], in assay [6], in assay [7], in [8] and in assay [2] was over 100 µM in each case. The TGI in assay [9], in assay [3] and in assay [4] was over 100 µM throughout.
As to `CC(C)C12Cc3c(ccc4ccccc34)OC1(C)Oc1ccc3ccccc3c1C2` (centres undefined), the TGI in assay [1], in [7], in assay [8], in assay [2], in assay [9] and in [3] was over 100 µM each time. In [4], the TGI was over 100 µM.
As for `COC(OC)c1cc2c(cc1C=O)OCO2`, the TGI in assay [1], in assay [5], in assay [7], in assay [8], in assay [2] and in assay [9] was over 100 µM in each case. In assay [4], this compound came in with a TGI of over 100 µM.
As to `O=C(O)C[C@@H](Cl)[C@H](NC(=O)OCc1ccccc1)C(=O)O`, the TGI in assay [1], in assay [5], in assay [6], in assay [7], in [8] and in assay [2] was over 100 µM in each case. Further, the TGI in assay [3] and in assay [4] was over 100 µM each time.
For the compound `O=c1[nH]c2ccccc2c2nc3ccccc3n12`, the TGI is over 100 µM in [1]; over 100 µM in assay [10]; over 100 µM in assay [5]; over 100 µM in assay [6]; 49.7 µM in [7]; over 100 µM in [8]. For the same compound, the TGI in [2], in assay [3] and in [4] was over 100 µM in each case.
`CCCCOC(=O)c1ccc(N)cc1`: the GI50 in [1] is 8.46 µM; in assay [10] it was 92.4 µM; in assay [5] it was 52.7 µM; in assay [6] it was 67.2 µM; in assay [7], over 100 µM; in assay [8], 48.2 µM. Also, the GI50 in [2] was 27.8 µM; in assay [3], 32.1 µM; in assay [4], 34.8 µM. The TGI in [1], in assay [10], in [5], in assay [6], in assay [7] and in [8] was over 100 µM throughout. Moreover, the TGI in assay [2], in [3] and in [4] was over 100 µM throughout.
Regarding `COC(=O)c1ccccc1N(C(=O)c1ccccc1)c1ccccc1C`, the TGI is over 100 µM in [1]; 43.1 µM in assay [5]; 69.1 µM in assay [7]; 83.5 µM in assay [8]; over 100 µM in [2]; 99.4 µM in [9]. The TGI in [3] was 54.5 µM; in assay [4] it was over 100 µM.
Take `O=C(O)[C@H](Cc1c[nH]c2ccccc12)N1C(=O)c2ccccc2C1=O`: the TGI in assay [1], in assay [10], in assay [5], in assay [6], in [7] and in [8] was over 100 µM in each case. In addition, the TGI in assay [2], in assay [3] and in [4] was over 100 µM each time. The GI50 in assay [5] and in assay [8] was over 100 µM throughout.
With `N#CC12CCC1C1CCCCC12N1CCSCC1` (centres undefined), the TGI in assay [1] is over 100 µM; in assay [5] it was 46.1 µM; in assay [6], over 100 µM; in assay [8], over 100 µM; in assay [9], over 100 µM; in assay [3] it was over 100 µM.
Regarding `N.N.N.N.N.NC(=O)[O-].[Co+3].[I-]`, the GI50 in assay [1], in [6], in assay [7], in assay [8], in [2] and in assay [3] was over 100 µM each time. Moreover, the GI50 in assay [4] was over 100 µM. For the same compound, the TGI in [1], in assay [6], in [7], in [8], in [2] and in assay [3] was over 100 µM in each case. For the same compound, the TGI in assay [4] was over 100 µM.
With `COc1cc(OC)c(C(=O)c2cccs2)cc1N`, the TGI in assay [1], in assay [6], in assay [7], in assay [8], in assay [2] and in assay [3] was over 100 µM in each case. The compound further gave a TGI in [4] of over 100 µM.
